{
  "source": "patent US5145781A",
  "about": "(priority 1989, dated 1992)",
  "key": {"[1]": {"conditions": "cited from earlier work"}, "[2]": {"experiment": "Water-solubility, light-resistance and stability (general statements)", "assay_type": "physicochemical"}, "alpha-glucosidase": {"system": "alpha-glucosidase", "experiment": "Hydrolysis by alpha-glucosidase from pig liver", "assay_type": "biochemical", "conditions": "alpha-glucosidase extracted from pig liver, partially purified"}, "7 week-old dd mice": {"system": "7 week-old dd mice", "experiment": "Acute toxicity test, oral administration to mice", "assay_type": "in vivo", "conditions": "orally administered"}},
  "data": [
    {"compound": "C[C@@H]1O[C@@H](OC[C@H]2O[C@@H](Oc3c(-c4ccc(O)c(O)c4)oc4cc(O)cc(O)c4c3=O)[C@H](O)[C@@H](O)[C@@H]2O)[C@H](O)[C@H](O)[C@H]1O", "note": "[rutin]", "values": [
      {"measurement": "solubility in water", "setting": "[1]; ambient temperature", "value": "about 0.01 w/v %"},
      {"measurement": "solubility in water, in words", "setting": "[1]", "value": "hardly soluble in water"},
      {"measurement": "stability in an alkaline solution", "setting": "[2]", "value": "tends to readily decompose"}
    ]},
    {"compound": "C[C@@H]1O[C@@H](OC[C@H]2O[C@@H](Oc3c(-c4ccc(O)c(O)c4)oc4cc(O)cc(O)c4c3=O)[C@H](O)[C@@H](O)[C@@H]2O[C@H]2O[C@H](CO)[C@@H](O)[C@H](O)[C@H]2O)[C@H](O)[C@H](O)[C@H]1O", "note": "[Example A-2, alpha-glucosyl rutin]", "values": [
      {"measurement": "hydrolysis by alpha-glucosidase", "setting": "alpha-glucosidase", "value": "hydrolyzed the alphaglucosyl rutin into rutin and D-glucose"},
      {"measurement": "acute toxicity, in words", "setting": "7 week-old dd mice", "value": "extremely low"},
      {"measurement": "mortality", "setting": "7 week-old dd mice; up to 5g, higher dose was difficult", "value": "the same result"}
    ]}
  ]
}
